According to publication PMC9133015 (Nature Communications, 2022):
Values joined by “and” are separate entries in the source; they are usually repeats but may differ in a detail not shown here. Equal values may be shown once.

Key:
PC-3 cells [1] = test: Anti-proliferation activity assay (CCK8, 72 h); format: cell-based, human; conditions: PC-3; for Relative proliferation rate (%) / optical density: replicates
DU145 cells [2] = test: Anti-proliferation activity assay (CCK8, 72 h); format: cell-based, human; conditions: DU145; for Relative proliferation rate (%) / optical density: replicates
PC-3 cells [3] = test: Invasion assay (transwell); format: cell-based, human; conditions: PC-3; 2 µM; replicates
DU145 cells [4] = test: Invasion assay (transwell); format: cell-based, human; conditions: DU145, 2 μM, replicates
DU145 xenograft = test: H&E and Ki67 staining of xenograft tumor tissues; format: in vivo, BALB/c nude mice; conditions: DU145, reference drug groups, replicates
PC-3 cells [5] = test: Cell cycle assay (PI flow cytometry); format: cell-based, human; conditions: PC-3, 2 µM, replicates
DU145 cells [6] = test: Cell cycle assay (PI flow cytometry); format: cell-based, human; conditions: DU145, 2 μM, replicates
22Rv1 cells [7] = test: Cell cycle assay (PI flow cytometry); format: cell-based, human; conditions: 22Rv1, 0.5 μM, replicates
PC-3 cells [8] = test: Migration assay (transwell); format: cell-based, human; conditions: PC-3; 2 µM; replicates
DU145 cells [9] = test: Migration assay (transwell); format: cell-based, human; conditions: DU145, 2 μM, replicates
22Rv1 cells [10] = test: Migration assay (transwell); format: cell-based, human; conditions: 22Rv1, 0.5 μM, replicates
DU145 cells [11] = test: Colony formation assay; format: cell-based, human; conditions: DU145, 2 μM, replicates
22Rv1 cells [12] = test: Colony formation assay; format: cell-based, human; conditions: 22Rv1, 0.5 μM, replicates
PC-3 xenograft = test: In vivo antitumor activity, PC-3 xenograft mouse model; design: species or system BALB/c nude mice; conditions: Palbociclib group; for tumor volume (Figure S10a): in mm³ (unit assumed)
PC-3 cells [13] = test: Apoptosis assay (Annexin V-APC/PI flow cytometry); format: cell-based, human; conditions: PC-3; 2 µM; replicates
DU145 cells [14] = test: Apoptosis assay (Annexin V-APC/PI flow cytometry); format: cell-based, human; conditions: DU145, 2 μM, replicates
22Rv1 cells [15] = test: Apoptosis assay (Annexin V-APC/PI flow cytometry); format: cell-based, human; conditions: 22Rv1, 0.5 μM, replicates

Structure (SMILES): CC(=O)c1c(C)c2cnc(Nc3ccc(N4CCNCC4)cn3)nc2n(C2CCCC2)c1=O [palbociclib]
- Relative proliferation rate (%) mean (PC-3 cells [1]; 0.078 uM): 8.515%
- Relative proliferation rate (%) (PC-3 cells [1]; 0.078 uM): 4.665% and 8.515% and 12.3646%
- optical density (PC-3 cells [1]; 0.078 uM): 0.981 and 0.967 and 0.971
- Relative proliferation rate (%) mean (PC-3 cells [1]; 0.3125 uM): 12.5396%
- Relative proliferation rate (%) (PC-3 cells [1]; 0.3125 uM): 9.427% and 12.4882% and 15.704%
- optical density (PC-3 cells [1]; 0.3125 uM): 0.932 and 0.925 and 0.934
- Relative proliferation rate (%) mean (PC-3 cells [1]; 1.25 uM): 26.3574%
- Relative proliferation rate (%) (PC-3 cells [1]; 1.25 uM): 21.0884% and 26.3955% and 31.5884%
- optical density (PC-3 cells [1]; 1.25 uM): 0.812 and 0.778 and 0.758
- Relative proliferation rate (%) mean (PC-3 cells [1]; 5 uM): 54.2128%
- Relative proliferation rate (%) (PC-3 cells [1]; 5 uM): 49.8542% and 54.21% and 58.574%
- optical density (PC-3 cells [1]; 5 uM): 0.516 and 0.484 and 0.459
- Relative proliferation rate (%) mean (PC-3 cells [1]; 20 uM): 74.7111%
- Relative proliferation rate (%) (PC-3 cells [1]; 20 uM): 68.7075% and 74.7398% and 80.6859%
- optical density (PC-3 cells [1]; 20 uM): 0.322 and 0.267 and 0.214
- Relative proliferation rate (%) mean (PC-3 cells [1]; 80 uM): 84.0905%
- Relative proliferation rate (%) (PC-3 cells [1]; 80 uM): 77.7454% and 83.8221% and 90.704%
- optical density (PC-3 cells [1]; 80 uM): 0.229 and 0.171 and 0.103
- Relative proliferation rate (%) mean (DU145 cells [2]; 0.0049 uM): 4.824%
- Relative proliferation rate (%) (DU145 cells [2]; 0.0049 uM): 3.385% and 4.869% and 6.219%
- optical density (DU145 cells [2]; 0.0049 uM): 0.999 and 1.016 and 0.95
- Relative proliferation rate (%) mean (DU145 cells [2]; 0.078 uM): 19.5052%
- Relative proliferation rate (%) (DU145 cells [2]; 0.078 uM): 16.5377% and 19.5693% and 22.4087%
- optical density (DU145 cells [2]; 0.078 uM): 0.863 and 0.859 and 0.786
- Relative proliferation rate (%) mean (DU145 cells [2]; 0.3125 uM): 28.7249%
- Relative proliferation rate (%) (DU145 cells [2]; 0.3125 uM): 24.9516% and 28.7453% and 32.4778%
- optical density (DU145 cells [2]; 0.3125 uM): 0.776 and 0.761 and 0.684
- Relative proliferation rate (%) mean (DU145 cells [2]; 1.25 uM): 33.0518%
- Relative proliferation rate (%) (DU145 cells [2]; 1.25 uM): 30.3675% and 33.0524% and 35.7354%
- optical density (DU145 cells [2]; 1.25 uM): 0.720 and 0.715 and 0.651
- Relative proliferation rate (%) mean (DU145 cells [2]; 5 uM): 54.1864%
- Relative proliferation rate (%) (DU145 cells [2]; 5 uM): 49.8066% and 54.2135% and 58.539%
- optical density (DU145 cells [2]; 5 uM): 0.519 and 0.489 and 0.420
- Relative proliferation rate (%) mean (DU145 cells [2]; 20 uM): 62.4741%
- Relative proliferation rate (%) (DU145 cells [2]; 20 uM): 57.4468% and 62.4532% and 67.5222%
- optical density (DU145 cells [2]; 20 uM): 0.440 and 0.401 and 0.329
- Relative proliferation rate (%) mean (DU145 cells [2]; 80 uM): 75.0057%
- Relative proliferation rate (%) (DU145 cells [2]; 80 uM): 68.472% and 74.9064% and 81.6387%
- optical density (DU145 cells [2]; 80 uM): 0.326 and 0.268 and 0.186
- Cell invasion (cell number) (PC-3 cells [3]): 1678 cell number and 1789 cell number and 1654 cell number
- Cell invasion (cell number) (DU145 cells [4]): 1998 cell number and 2045 cell number and 2102 cell number
- Positive rate ( % ) (Fig. 7f) (DU145 xenograft): 31.83% and 31.88% and 31.79%
- Cell cycle percentages ( % ) G0/G1 (PC-3 cells [5]; G0/G1): 84.02% and 87.57% and 88.06%
- Cell cycle percentages ( % ) G2/M (PC-3 cells [5]; G2/M): 10.01% and 8.39% and 8.02%
- Cell cycle percentages ( % ) S (PC-3 cells [5]; S): 5.97% and 4.04% and 3.92%
- Cell cycle percentages ( % ) G0/G1 (DU145 cells [6]): 59.02% and 61.19% and 64.25%
- Cell cycle percentages ( % ) G2/M (DU145 cells [6]): 23.03% and 20.58% and 18.04%
- Cell cycle percentages ( % ) S (DU145 cells [6]): 17.95% and 18.23% and 19.71%
- Cell cycle percentages ( % ) G0/G1 (22Rv1 cells [7]): 79.03% and 81.73% and 83.36%
- Cell cycle percentages ( % ) G2/M (22Rv1 cells [7]): 9.98% and 8.76% and 8.18%
- Cell cycle percentages ( % ) S (22Rv1 cells [7]): 10.99% and 9.51% and 8.46%
- Cell migration (cell number) (PC-3 cells [8]): 267 cell number and 257 cell number and 249 cell number
- Cell migration (cell number) (DU145 cells [9]): 4289 cell number and 4310 cell number and 4198 cell number
- Cell migration (cell number) (22Rv1 cells [10]): 1008 cell number and 1108 cell number and 1169 cell number
- Colony formation (cell number) (DU145 cells [11]): 150 cell number and 158 cell number and 148 cell number
- Colony formation (cell number) (22Rv1 cells [12]): 250 cell number and 274 cell number and 246 cell number
- body weight (Figure S10b) (PC-3 xenograft; day 1, individual mice, in g (unit assumed)): 20.3 and 18.7 and 20.4 and 19.9 and 20.5 and 20.1 and 19.3 and 19.6
- tumor volume (Figure S10a) (PC-3 xenograft; day 1, individual mice): 71.756 and 85.3384 and 76.4514 and 97.6139 and 96.2115 and 81.8398 and 86.3514 and 80.8996
- body weight (Figure S10b) (PC-3 xenograft; day 3, individual mice): 20.6 (2×) and 19.9 (2×) and 20.3 (2×) and 20.4 and 19.5
- tumor volume (Figure S10a) (PC-3 xenograft; day 3, individual mice): 100.82 and 125.949 and 118.537 and 171.398 and 182.064 and 137.067 and 104.176 and 152.65
- body weight (Figure S10b) (PC-3 xenograft; day 5, individual mice, in g (unit assumed)): 20.8 and 20.1 and 20.9 and 20.5 and 20.7 and 20.6 and 19.4 and 20.3
- tumor volume (Figure S10a) (PC-3 xenograft; day 5, individual mice): 153.25 and 178.1 and 171.863 and 263.764 and 233.187 and 184.767 and 136.023 and 212
- body weight (Figure S10b) (PC-3 xenograft; day 7, individual mice): 21.1 (2×) and 20.4 (3×) and 20.6 and 20.9 and 19.6
- tumor volume (Figure S10a) (PC-3 xenograft; day 7, individual mice): 216.949 and 236.787 and 227.898 and 326.971 and 317.909 and 235.081 and 192.895 and 301.873
- body weight (Figure S10b) (PC-3 xenograft; day 9, individual mice): 21.3 and 20.2 and 21.1 and 20.9 (2×) and 21.2 and 20.1 and 19.8
- tumor volume (Figure S10a) (PC-3 xenograft; day 9, individual mice): 326.253 and 371.781 and 295.973 and 465.763 and 471.469 and 352.991 and 279.054 and 463.034
- body weight (Figure S10b) (PC-3 xenograft; day 11, individual mice): 21 and 20.5 and 21.4 and 21.2 and 21.5 (2×) and 20.3 and 20.1
- tumor volume (Figure S10a) (PC-3 xenograft; day 11, individual mice): 372.859 and 454.695 and 359.079 and 528.072 and 529.867 and 450.398 and 332.776 and 546.405
- body weight (Figure S10b) (PC-3 xenograft; day 13, individual mice, in g (unit assumed)): 21.3 and 20.8 and 21.6 and 21.5 and 22 and 20.7 and 20.4 and 21.8
- tumor volume (Figure S10a) (PC-3 xenograft; day 13, individual mice): 420.513 and 508.608 and 384.455 and 605.279 and 564.127 and 444.148 and 375.063 and 606.531
- body weight (Figure S10b) (PC-3 xenograft; day 15, individual mice): 21.1 and 20.8 and 21.3 and 21.6 and 22.2 (2×) and 20.3 and 20.7
- tumor volume (Figure S10a) (PC-3 xenograft; day 15, individual mice): 457.463 and 542.009 and 415.332 and 636.893 and 637.934 and 467.888 and 410.165 and 646.315
- body weight (Figure S10b) (PC-3 xenograft; day 17, individual mice, in g (unit assumed)): 21.5 and 21.1 and 21.7 and 22 and 22.3 and 20.6 and 21 and 22.4
- tumor volume (Figure S10a) (PC-3 xenograft; day 17, individual mice): 524.733 and 575.217 and 457.759 and 764.115 and 735.045 and 549.485 and 474.267 and 700.215
- body weight (Figure S10b) (PC-3 xenograft; day 19, individual mice, in g (unit assumed)): 21.8 and 21.4 and 22 and 22.2 and 22.5 and 20.9 and 21.1 and 22.7
- tumor volume (Figure S10a) (PC-3 xenograft; day 19, individual mice): 535.372 and 736.543 and 494.255 and 792.24 and 789.87 and 530.997 and 470.291 and 757.507
- body weight (Figure S10b) (PC-3 xenograft; day 21, individual mice): 22.2 (2×) and 21.8 and 22.6 and 23 and 21.2 and 21.5 and 22.9
- tumor volume (Figure S10a) (PC-3 xenograft; day 21, individual mice): 606.966 and 810.199 and 550.471 and 875.109 and 842.441 and 533.366 and 544.597 and 821.393
- body weight (Figure S10b) (PC-3 xenograft; day 23, individual mice, in g (unit assumed)): 22.4 and 21.9 and 22.5 and 22.9 and 23.5 and 21.6 and 21.7 and 23.3
- tumor volume (Figure S10a) (PC-3 xenograft; day 23, individual mice): 636.352 and 826.869 and 562.019 and 936.064 and 895.067 and 564.812 and 586.01 and 861.421
- body weight (Figure S10b) (PC-3 xenograft; day 25, individual mice, in g (unit assumed)): 22.7 and 22.2 and 22.8 and 23.3
- tumor volume (Figure S10a) (PC-3 xenograft; day 25, individual mice): 672.525 and 833.997 and 554.501 and 942.419
- tumor weight (Figure S10c) (PC-3 xenograft; individual mice, in g (unit assumed)): 0.86 and 0.74 and 1.05 and 0.97 and 0.73 and 0.85 and 0.69 and 0.92
- Apoptosis (%) (PC-3 cells [13]): 13.98% and 14.78% and 15.2%
- Apoptosis (%) (DU145 cells [14]): 16.25% and 14.39% and 12.36%
- Apoptosis (%) (22Rv1 cells [15]): 5.82% and 6.41% and 7.27%
